{
  "source": "the supplement of paper PMC10307832",
  "assay_in_all_cases": "relative viability (nuclei count vs DMSO), 5 days (fraction); higher = more cells survive",
  "key": {"A-427": {"tested_on": "A-427", "how_it_was_run": "(§1)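 Lung cancer cell lines, seeded in 1536-well plates, were treated the following day by pin tool with a single drug or with five library-drug doses (not always all listed) in √10 steps on top of a fixed anchor-drug dose. Cells were fixed and nuclei stained in one step after 5 days, and nuclei were counted. Relative viability is the nuclei count for treated wells divided by that for vehicle wells, reported as medians of duplicate plates.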"}, "COR-L 105": {"tested_on": "COR-L 105", "how_it_was_run": "as §1"}, "ChaGo-K-1": {"tested_on": "ChaGo-K-1", "how_it_was_run": "as §1"}, "EKVX": {"tested_on": "EKVX", "how_it_was_run": "as §1"}, "EMC-BAC-2": {"tested_on": "EMC-BAC-2", "how_it_was_run": "as §1"}, "H3255": {"tested_on": "H3255", "how_it_was_run": "as §1"}, "HCC-366": {"tested_on": "HCC-366", "how_it_was_run": "as §1"}, "LK-2": {"tested_on": "LK-2", "how_it_was_run": "as §1"}, "LOU-NH91": {"tested_on": "LOU-NH91", "how_it_was_run": "as §1"}, "NCI-H1666": {"tested_on": "NCI-H1666", "how_it_was_run": "as §1"}, "NCI-H1734": {"tested_on": "NCI-H1734", "how_it_was_run": "as §1"}, "NCI-H1755": {"tested_on": "NCI-H1755", "how_it_was_run": "as §1"}, "NCI-H1792": {"tested_on": "NCI-H1792", "how_it_was_run": "as §1"}, "NCI-H1975": {"tested_on": "NCI-H1975", "how_it_was_run": "as §1"}, "NCI-H2170": {"tested_on": "NCI-H2170", "how_it_was_run": "as §1"}, "NCI-H23": {"tested_on": "NCI-H23", "how_it_was_run": "as §1"}, "NCI-H441": {"tested_on": "NCI-H441", "how_it_was_run": "as §1"}, "NCI-H520": {"tested_on": "NCI-H520", "how_it_was_run": "as §1"}, "NCI-H596": {"tested_on": "NCI-H596", "how_it_was_run": "as §1"}, "PC-3 [JPC-3]": {"tested_on": "PC-3 [JPC-3]", "how_it_was_run": "as §1"}, "SK-MES-1": {"tested_on": "SK-MES-1", "how_it_was_run": "as §1"}, "SW 900": {"tested_on": "SW 900", "how_it_was_run": "as §1"}},
  "data": [
    {"smiles": "O=C(O)c1ccc(-c2c[nH]c3ncc(-c4ccccc4)cc23)cc1C1CCCC1", "note": "+ CC(=O)Nc1cccc(-n2c(=O)n(C3CC3)c(=O)c3c(Nc4ccc(I)cc4F)n(C)c(=O)c(C)c32)c1 [Trametinib] (partner 0.02 µM)", "values": [
      {"measurement": "relative viability", "setting": "A-427; first compound 0.04 µM", "value": 0.759},
      {"measurement": "relative viability", "setting": "A-427; first compound 0.1265 µM", "value": 0.78},
      {"measurement": "relative viability", "setting": "A-427; first compound 0.4 µM", "value": 0.741},
      {"measurement": "relative viability", "setting": "A-427; first compound 1.265 µM", "value": 0.584},
      {"measurement": "relative viability", "setting": "COR-L 105; first compound 0.04 µM", "value": 0.402},
      {"measurement": "relative viability", "setting": "COR-L 105; first compound 0.1265 µM", "value": 0.456},
      {"measurement": "relative viability", "setting": "COR-L 105; first compound 0.4 µM", "value": 0.46},
      {"measurement": "relative viability", "setting": "COR-L 105; first compound 1.265 µM", "value": 0.506},
      {"measurement": "relative viability", "setting": "ChaGo-K-1; first compound 0.04 µM", "value": 1.15},
      {"measurement": "relative viability", "setting": "ChaGo-K-1; first compound 0.1265 µM", "value": 0.895},
      {"measurement": "relative viability", "setting": "ChaGo-K-1; first compound 0.4 µM", "value": 0.89},
      {"measurement": "relative viability", "setting": "ChaGo-K-1; first compound 1.265 µM", "value": 0.857},
      {"measurement": "relative viability", "setting": "EKVX; first compound 0.04 µM", "value": 0.322},
      {"measurement": "relative viability", "setting": "EKVX; first compound 0.1265 µM", "value": 0.408},
      {"measurement": "relative viability", "setting": "EKVX; first compound 0.4 µM", "value": 0.33},
      {"measurement": "relative viability", "setting": "EKVX; first compound 1.265 µM", "value": 0.316},
      {"measurement": "relative viability", "setting": "EMC-BAC-2; first compound 0.04 µM", "value": 0.903},
      {"measurement": "relative viability", "setting": "EMC-BAC-2; first compound 0.1265 µM", "value": 0.976},
      {"measurement": "relative viability", "setting": "EMC-BAC-2; first compound 0.4 µM", "value": 1.05},
      {"measurement": "relative viability", "setting": "EMC-BAC-2; first compound 1.265 µM", "value": 0.973},
      {"measurement": "relative viability", "setting": "H3255; first compound 0.04 µM", "value": 0.587},
      {"measurement": "relative viability", "setting": "H3255; first compound 0.1265 µM", "value": 0.689},
      {"measurement": "relative viability", "setting": "H3255; first compound 0.4 µM", "value": 0.584},
      {"measurement": "relative viability", "setting": "H3255; first compound 1.265 µM", "value": 0.625},
      {"measurement": "relative viability", "setting": "HCC-366; first compound 0.04 µM", "value": 0.343},
      {"measurement": "relative viability", "setting": "HCC-366; first compound 0.1265 µM", "value": 0.466},
      {"measurement": "relative viability", "setting": "HCC-366; first compound 0.4 µM", "value": 0.311},
      {"measurement": "relative viability", "setting": "HCC-366; first compound 1.265 µM", "value": 0.309},
      {"measurement": "relative viability", "setting": "LK-2; first compound 0.04 µM", "value": 0.73},
      {"measurement": "relative viability", "setting": "LK-2; first compound 0.1265 µM", "value": 0.816},
      {"measurement": "relative viability", "setting": "LK-2; first compound 0.4 µM", "value": 0.599},
      {"measurement": "relative viability", "setting": "LK-2; first compound 1.265 µM", "value": 0.781},
      {"measurement": "relative viability", "setting": "LOU-NH91; first compound 0.04 µM", "value": 0.774},
      {"measurement": "relative viability", "setting": "LOU-NH91; first compound 0.1265 µM", "value": 0.848},
      {"measurement": "relative viability", "setting": "LOU-NH91; first compound 0.4 µM", "value": 0.773},
      {"measurement": "relative viability", "setting": "LOU-NH91; first compound 1.265 µM", "value": 0.681},
      {"measurement": "relative viability", "setting": "NCI-H1666; first compound 0.04 µM", "value": 0.916},
      {"measurement": "relative viability", "setting": "NCI-H1666; first compound 0.1265 µM", "value": 0.809},
      {"measurement": "relative viability", "setting": "NCI-H1666; first compound 0.4 µM", "value": 0.84},
      {"measurement": "relative viability", "setting": "NCI-H1666; first compound 1.265 µM", "value": 0.598},
      {"measurement": "relative viability", "setting": "NCI-H1734; first compound 0.04 µM", "value": 0.618},
      {"measurement": "relative viability", "setting": "NCI-H1734; first compound 0.1265 µM", "value": 0.706},
      {"measurement": "relative viability", "setting": "NCI-H1734; first compound 0.4 µM", "value": 0.614},
      {"measurement": "relative viability", "setting": "NCI-H1734; first compound 1.265 µM", "value": 0.585},
      {"measurement": "relative viability", "setting": "NCI-H1755; first compound 0.04 µM", "value": 0.778},
      {"measurement": "relative viability", "setting": "NCI-H1755; first compound 0.1265 µM", "value": 0.777},
      {"measurement": "relative viability", "setting": "NCI-H1755; first compound 0.4 µM", "value": 0.799},
      {"measurement": "relative viability", "setting": "NCI-H1755; first compound 1.265 µM", "value": 0.754},
      {"measurement": "relative viability", "setting": "NCI-H1792; first compound 0.04 µM", "value": 0.375},
      {"measurement": "relative viability", "setting": "NCI-H1792; first compound 0.1265 µM", "value": 0.454},
      {"measurement": "relative viability", "setting": "NCI-H1792; first compound 0.4 µM", "value": 0.407},
      {"measurement": "relative viability", "setting": "NCI-H1792; first compound 1.265 µM", "value": 0.392},
      {"measurement": "relative viability", "setting": "NCI-H1975; first compound 0.04 µM", "value": 0.319},
      {"measurement": "relative viability", "setting": "NCI-H1975; first compound 0.1265 µM", "value": 0.435},
      {"measurement": "relative viability", "setting": "NCI-H1975; first compound 0.4 µM", "value": 0.395},
      {"measurement": "relative viability", "setting": "NCI-H1975; first compound 1.265 µM", "value": 0.32},
      {"measurement": "relative viability", "setting": "NCI-H2170; first compound 0.04 µM", "value": 0.899},
      {"measurement": "relative viability", "setting": "NCI-H2170; first compound 0.1265 µM", "value": 0.925},
      {"measurement": "relative viability", "setting": "NCI-H2170; first compound 0.4 µM", "value": 0.887},
      {"measurement": "relative viability", "setting": "NCI-H2170; first compound 1.265 µM", "value": 0.79},
      {"measurement": "relative viability", "setting": "NCI-H23; first compound 0.04 µM", "value": 0.375},
      {"measurement": "relative viability", "setting": "NCI-H23; first compound 0.1265 µM", "value": 0.397},
      {"measurement": "relative viability", "setting": "NCI-H23; first compound 0.4 µM", "value": 0.373},
      {"measurement": "relative viability", "setting": "NCI-H23; first compound 1.265 µM", "value": 0.258},
      {"measurement": "relative viability", "setting": "NCI-H441; first compound 0.04 µM", "value": 0.48},
      {"measurement": "relative viability", "setting": "NCI-H441; first compound 0.1265 µM", "value": 0.494},
      {"measurement": "relative viability", "setting": "NCI-H441; first compound 0.4 µM", "value": 0.393},
      {"measurement": "relative viability", "setting": "NCI-H441; first compound 1.265 µM", "value": 0.464},
      {"measurement": "relative viability", "setting": "NCI-H520; first compound 0.04 µM", "value": 0.673},
      {"measurement": "relative viability", "setting": "NCI-H520; first compound 0.1265 µM", "value": 0.775},
      {"measurement": "relative viability", "setting": "NCI-H520; first compound 0.4 µM", "value": 0.672},
      {"measurement": "relative viability", "setting": "NCI-H520; first compound 1.265 µM", "value": 0.437},
      {"measurement": "relative viability", "setting": "NCI-H596; first compound 0.04 µM", "value": 0.726},
      {"measurement": "relative viability", "setting": "NCI-H596; first compound 0.1265 µM", "value": 0.815},
      {"measurement": "relative viability", "setting": "NCI-H596; first compound 0.4 µM", "value": 0.777},
      {"measurement": "relative viability", "setting": "NCI-H596; first compound 1.265 µM", "value": 0.802},
      {"measurement": "relative viability", "setting": "PC-3 [JPC-3]; first compound 0.04 µM", "value": 0.656},
      {"measurement": "relative viability", "setting": "PC-3 [JPC-3]; first compound 0.1265 µM", "value": 0.756},
      {"measurement": "relative viability", "setting": "PC-3 [JPC-3]; first compound 0.4 µM", "value": 0.752},
      {"measurement": "relative viability", "setting": "PC-3 [JPC-3]; first compound 1.265 µM", "value": 0.647},
      {"measurement": "relative viability", "setting": "SK-MES-1; first compound 0.04 µM", "value": 0.57},
      {"measurement": "relative viability", "setting": "SK-MES-1; first compound 0.1265 µM", "value": 0.538},
      {"measurement": "relative viability", "setting": "SK-MES-1; first compound 0.4 µM", "value": 0.521},
      {"measurement": "relative viability", "setting": "SK-MES-1; first compound 1.265 µM", "value": 0.524},
      {"measurement": "relative viability", "setting": "SW 900; first compound 0.04 µM", "value": 0.757},
      {"measurement": "relative viability", "setting": "SW 900; first compound 0.1265 µM", "value": 0.711},
      {"measurement": "relative viability", "setting": "SW 900; first compound 0.4 µM", "value": 1.37},
      {"measurement": "relative viability", "setting": "SW 900; first compound 1.265 µM", "value": 0.454}
    ]}
  ]
}
